Read-outs that look alike come from different tables or passages of the source.
Experiments:
[1] = set-up: species or system SD rats; settings: male, SD, rat, in vivo, iv, 1 mg/kg
Method: 105 was dissolved in 4% NaHCO3 in saline for IV administration. The detailed procedure of dosing solution preparation was presented in Appendix I.
Thirteen (13) animals were placed on the study. The animals in IV arm were free access to food and water. One extra animal was used for blank liver and plasma generation (5 mL per animal). The resulting blank liver and plasma was then applied to the development of bioanalytical method and sample bioanalysis for the entire study.
The IV injection was conducted via foot dorsal vein. Animals were free access to food and water before dose.
The animal is restrained manually. Approximately 150 μL of blood/time point is collected into sodium heparin tube via cardiac puncture for terminal bleeding (anesthetized under carbon dioxide). Blood sample will be put on ice and centrifuged to obtain plasma sample (2000 g, 5 min under 4° C.) within 10 minutes.
The animal will be euthanized with carbon dioxide inhalation. Open abdominal cavity with scissor to expose internal organs. Hold the carcass in an upright position and allow the organs to fall forward. Cut the connective tissues and remove the organs. […]
The PK parameters were determined by non-compartmental model of non-compartmental analysis tool, Pharsight Phoenix WinNonlin® 6.2 software. […]

[2] = in vivo; set-up: species or system SD rats; settings: rat, 1.4 mg/kg; for Kp: AUC(0-t) ratio of liver over plasma
Method: 113 was dissolved in 4% NaHCO3 in saline for IV administration. The detailed procedure of dosing solution preparation was presented in Appendix I.
15 animals were placed on the study. The animals in IV arm were free access to food and water. For PO dose group, the animals were fasted overnight prior to dosing and the food was resumed 4 hours postdose.
One extra animal was used for blank liver, brain and plasma generation (5 mL per animal). The resulting blank liver, brain and plasma were then applied to the development of bioanalytical method and sample bioanalysis for the entire study.
The IV injection was conducted via foot dorsal vein. PO via oral gavage.
Blood collection: The animal is restrained manually. Approximately 200 μL of blood/time point is collected into sodium heparin tube via cardiac puncture for terminal bleeding (anesthetized under carbon dioxide). Blood sample will be put on ice and centrifuged to obtain plasma sample (2000 g, 5 min under 4° C.) within 10 minutes.
Liver collection: The animal will be euthanized with carbon dioxide inhalation. Open abdominal cavity with scissor to expose internal organs. Hold the carcass in an upright position and allow the organs to fall forward. Cut the connective tissues and remove the organs. Then the organs are rinsed with cold saline, dried on filtrate paper, placed into a screw-top tube and weighed, snap frozen by placing into dry-ice immediately.
Brain collection: Make a mid-line incision in the animals scalp and retract the skin. Using small bone cutters and rongeurs, remove the skull overlying the brain. Remove the brain using a spatula and rinse with cold saline, dried on filtrate paper, placed into a screw-top tube and weighed, snap frozen by placing into dry-ice immediately. Brain tissue will be homogenized for 2 min with 3 volumes (v/w) of homogenizing solution (PBS pH 7.4) right before analysis. Plasma, brain and liver samples were stored at approximately −80° C. until analysis. The backup samples will be discarded after three weeks after in-life completion unless requested. The unused dosing solutions will be discarded within three weeks after completion of the study.
The PK parameters were determined by non-compartmental model of non-compartmental analysis tool, Pharsight Phoenix WinNonlin® 6.2 software.
Concentration data within 80%-120% of LLOQ was considered within normal instrumental variation and presented in the results.
Time points were automatic selected by “best fit” model for terminal half life estimation as the first option. Manual selection was applied when “best fit” could not well define the terminal phase.

[3] = tested on: PP2A in circulating white blood cells; test: Inhibition of PP2A in circulating white blood cells after slow iv 100; format: in vivo; settings: rat
[4] = Microsomal stability, dog microsomes; format: in vitro ADME; settings: relative to verapamil
[5] = Microsomal stability, monkey microsomes; format: in vitro ADME; settings: relative to verapamil
[6] = Microsomal stability, human microsomes; format: in vitro ADME; settings: relative to verapamil
[7] = tested on: U251 human GBM cells; settings: 100 ip together with radiation, daily for 5 days x 3 courses; 6 months plus follow-up
Method: The mechanism of potentiation is impairment of multiple steps in a DNA-damage repair process and inhibition of exit from mitosis. […] Mice bearing subcutaneous (sc) xenografts of U251 human GBM cells were treated with compound 100 intraperitoneally together with radiation, each given daily for 5 days×3 courses.

[8] = in vivo
[9] = day 4, cited from earlier work
[10] = male, Sprague-Dawley (SD), iv, 6 hr
[11] = male, SD, iv, Liver-plasma concentration ratio of 113
[12] = male, SD, iv, liver concentration of 113
[13] = male, SD, iv, plasma concentration of 113
[14] = male, SD, po, plasma concentration of 113
[15] = male, Sprague-Dawley, iv, Brain-plasma concentration ratio of 113
[16] = male, Sprague-Dawley, iv, brain concentration of 113

SMILES: O=C(O)C1C2CCC(O2)C1C(=O)O (stereo not shown) [Endothal, 7-oxabicyclo[2.2.1]heptane-2,3-dicarboxylic acid]
- AUC(0-t) [1]: 3152 ng·h/mL
- Tmax [1]: 15 min

SMILES: CN1CCN(C(=O)C2C3CCC(O3)C2C(=O)O)CC1 (stereo not shown) [Compound 100, 3-(4-methylpiperazine-1-carbonyl)-7-oxa-bicyclo[2,2,1]-heptane-2-carboxylic acid]
- AUC(0-inf) ([2]; male, Sprague-Dawley (SD), iv): 2830 ng·h/mL
- AUC(0-t) ([2]; male, Sprague-Dawley (SD), iv): 2800 ng·h/mL
- AUC(0-t) of 100 ([2]; male, Sprague-Dawley (SD), iv): 703 ng·h/mL
- AUC(0-∞) of 100 ([2]; male, Sprague-Dawley (SD), iv): 707 ng·h/mL
- Tmax ([2]; male, Sprague-Dawley (SD), iv): 15 min
- Tmax of 100 ([2]; male, Sprague-Dawley (SD), iv): 15 min
- Liver-plasma concentration ratio of 100 [2, 10]: 7.32
- plasma concentration of 100 [2, 10]: 3.25 ng/mL
- AUC(0-last) of 100 in plasma ([2]; male, Sprague-Dawley, iv): 703 ng·h/mL
- AUC(0-t) ratio of liver over plasma, 100 ([2]; male, Sprague-Dawley, iv): 399
- AUC(0-∞) of 100 in plasma ([2]; male, Sprague-Dawley, iv): 707 ng·h/mL
- Cmax of 100 in liver ([2]; male, Sprague-Dawley, iv): 1895 ng/g
- Cmax of 100 in plasma ([2]; male, Sprague-Dawley, iv): 554 ng/mL
- Tmax of 100 in liver ([2]; male, Sprague-Dawley, iv): 15 min
- Tmax of 100 in plasma ([2]; male, Sprague-Dawley, iv): 15 min
- plasma concentration of 100 ([2]; male, Sprague-Dawley, iv, 6 h): 3.25 ng/mL
- AUC(0-last) of 100 in liver ([2]; iv): 2804 ng·h/g
- AUC(0-∞) of 100 in liver ([2]; iv): 2834 ng·h/g
- AUClast-liver/AUClast-plasma of 100 ([2]; iv): 399
- inhibition of PP2A in circulating white blood cells ([3]; 100 slow iv 0.375 mg/kg): 9%
- inhibition of PP2A in circulating white blood cells ([3]; 100 slow iv 0.75 mg/kg): 15%
- inhibition of PP2A in circulating white blood cells ([3]; 100 slow iv 1.5 mg/kg): 25%
- stability in the presence of microsomes [4]: stable relative to verapamil
- stability in the presence of microsomes [5]: stable relative to verapamil
- stability in the presence of microsomes [6]: stable relative to verapamil
- xenografts eliminated [7]: 60%
- passage of the blood brain barrier (BBB) (statement) [8]: does not readily pass the blood brain barrier
- Cl ([9]; MALE rats, 0.5 mg/kg): 17.85 mL/min/kg
- Cl ([9]; MALE rats, 0.75 mg/kg): 22.32 mL/min/kg
- Cl ([9]; MALE rats, 1.25 mg/kg): 15.8 mL/min/kg
- % AUC* Extrapolated ([9]; female rats, 0.5 mg/kg): 5.6%
- AUC* ([9]; female rats, 0.5 mg/kg): 479 ng·h/mL
- AUClast ([9]; female rats, 0.5 mg/kg): 452 ng·h/mL
- Cl ([9]; female rats, 0.5 mg/kg): 17.42 mL/min/kg
- Co ([9]; female rats, 0.5 mg/kg): 1497 ng/mL
- DN AUClast ([9]; female rats, 0.5 mg/kg): 904
- SC AUClast ([9]; female rats, 0.5 mg/kg): 17.7 ng·h/mL
- T1/2 ([9]; female rats, 0.5 mg/kg): 15 min
- Vz ([9]; female rats, 0.5 mg/kg): 0.378 L/kg
- % AUC* Extrapolated ([9]; female rats, 0.75 mg/kg): 27%
- AUC* ([9]; female rats, 0.75 mg/kg): 949 ng·h/mL
- AUClast ([9]; female rats, 0.75 mg/kg): 691 ng·h/mL
- Cl ([9]; female rats, 0.75 mg/kg): 13.2 mL/min/kg
- Co ([9]; female rats, 0.75 mg/kg): 2347 ng/mL
- DN AUClast ([9]; female rats, 0.75 mg/kg): 921
- SC AUClast ([9]; female rats, 0.75 mg/kg): 54.0 ng·h/mL
- T1/2 ([9]; female rats, 0.75 mg/kg): 35.4 min
- Vz ([9]; female rats, 0.75 mg/kg): 0.677 L/kg
- % AUC* Extrapolated ([9]; female rats, 1.25 mg/kg): 17%
- AUC* ([9]; female rats, 1.25 mg/kg): 2853 ng·h/mL
- AUClast ([9]; female rats, 1.25 mg/kg): 2359 ng·h/mL
- Cl ([9]; female rats, 1.25 mg/kg): 7.3 mL/min/kg
- Co ([9]; female rats, 1.25 mg/kg): 3849 ng/mL
- DN AUClast ([9]; female rats, 1.25 mg/kg): 1887
- SC AUClast ([9]; female rats, 1.25 mg/kg): 747 ng·h/mL
- T1/2 ([9]; female rats, 1.25 mg/kg): 108 min
- Vz ([9]; female rats, 1.25 mg/kg): 1.138 L/kg

SMILES: CN1CCN(C(=O)C2C(C(=O)OCC(Cl)(Cl)Cl)[C@H]3CC[C@@H]2O3)CC1 (stereo partly shown) [Compound 113]
- Liver-plasma concentration ratio of 113 ([2]; male, SD, iv, 1 h): 1.18
- AUC(0-t) ([2]; male, SD, iv, AUClast of 113 in plasma): 155 ng·h/mL
- Kp at 0.25 h [2, 11]: 0.321
- Kp at 1 h [2, 11]: 1.35
- concentration at 0.25 h [2, 12]: 55.5 ng/g
- concentration at 1 h [2, 12]: 14.6 ng/g
- concentration at 0.25 h [2, 13]: 173 ng/mL
- concentration at 1 h [2, 13]: 10.8 ng/mL
- plasma concentration of 113 ([2]; male, SD, po, 2 h): 2.15 ng/mL
- concentration at 0.25 h [2, 14]: 18.3 ng/mL
- concentration at 1 h [2, 14]: 4.61 ng/mL
- concentration at 2 h [2, 14]: 2.15 ng/mL
- Cmax of 113 ([2]; male, Sprague-Dawley (SD), iv): 90.4 ng/mL
- Tmax ([2]; male, Sprague-Dawley (SD), iv): 15 min
- Cmax ([2]; male, Sprague-Dawley (SD), iv, Cmax of 113): 46.2 ng/mL
- F of 113 ([2]; male, Sprague-Dawley (SD), po): 10.1%
- Tmax ([2]; male, Sprague-Dawley (SD), po): 15 min
- AUC(0-t) ([2]; male, Sprague-Dawley (SD), po, AUC(0-t) of 113): 15.7 ng·h/mL
- Cmax ([2]; male, Sprague-Dawley (SD), po, Cmax of 113): 17.7 ng/mL
- bioavailability ([2]; male, Sprague-Dawley): 10.1%
- Tmax ([2]; male, Sprague-Dawley, iv): 15 min
- Kp ([2]; male, Sprague-Dawley, iv, 113): 18.1
- Kp ([2]; male, Sprague-Dawley, iv, 113 (printed in the brain paragraph)): 30.6
- Kp at 0.25 h [2, 15]: 0.498
- Kp at 1 h [2, 15]: 0.537
- Cmax ([2]; male, Sprague-Dawley, iv, Cmax of 113 in brain): 90.4 ng/g
- Cmax ([2]; male, Sprague-Dawley, iv, Cmax of 113 in liver): 46.2 ng/g
- Kp at 1 h ([2]; male, Sprague-Dawley, iv, Liver-plasma concentration ratio of 113): 1.27
- concentration at 0.25 h [2, 16]: 86.2 ng/g
- concentration at 1 h [2, 16]: 5.8 ng/g
- Tmax ([2]; male, Sprague-Dawley, po): 15 min
- AUC(0-t) ([2]; male, Sprague-Dawley, po, AUClast of 113 in plasma): 15.7 ng·h/mL
- Cmax ([2]; male, Sprague-Dawley, po, Cmax of 113 in plasma): 17.7 ng/mL
- AUC(0-last) of 113 in brain ([2]; iv): 47.5 ng·h/g
- AUC(0-last) of 113 in liver ([2]; iv): 28.1 ng·h/g
